According to patent US8198317B2, “Methylenedioxy phenolic compounds and their use to treat disease” (The Ohio State University Research Foundation, priority 2008, dated 2012):

Legend:
VCAM-1 = VCAM-1 western blot in TNFα treated HUVECs; type: cell-based, human
Experimental: FIG. 25 is a graph showing VCAM-1 protein expression level as a cellular correlate of inflammation. INV-75 inhibits TNFα induced VCAM-1 expression in HUVECs. HUVECs were pretreated with vehicle, INV75, or WY-14643 for 2 hours, and then treated with TNFα for 4 hours. VCAM-1 expression was analyzed by Western blot. A representative and summary of three independent experiments are presented. *, p<0.05 vs control; #, p<0.05 vs TNFα.
In subsequent experiments we also tested the effects of INV-75 on VCAM-1 expression by western blot.
We have also examined the effects of INV-75 in cell culture to understand its effects on regulation of the adhesion molecule VCAM-1. We had previously shown that iNV-75 reduced NF-kB activation and expression of VCAM-1 and ICAM-1 in HUVEC cells (see FIG. 3 and FIG. 4). […] HUVECs were pretreated with vehicle, INV-75, or WY-14643 for 2 hours, and then treated with TNFα for 4 hours. VCAM-1 expression was analyzed at the end of this duration. A representative and summary of three independent experiments are presented. *, p<0.05 vs control; #, p<0.05 vs TNFα (FIG. 25).

LDL receptor = LDL receptor mRNA by RT-PCR in HepG2 cells; type: cell-based, human; conditions: HepG2, time dependent and dose dependent
Experimental: FIG. 5E is graph showing time course of low density lipoprotein receptor (LDLR) messenger RNA (mRNA) with INV-75 assessed by quantitative real time polymerase chain reaction (RT-PCR). A total of three experiments were performed. *, p<0.01 by ANOVA compared to vehicle.
FIG. 5F is a graph showing dose dependency experiments of low density lipoprotein receptor (LDLR) messenger RNA (mRNA) measurement with INV-75. HepG2 cells were stimulated with multiple concentrations of INV-75 for 1 hour and LDL mRNA expression was measured by quantitative real time polymerase chain reaction (RT-PCR). A total of three experiments were performed. *, p<0.01 by ANOVA compared to vehicle. Dose of INV-75 is log molar concentration.
Next we investigated the effect of INV-75 in regulating LDL receptor expression in the same cells using a similar protocol to assess dose and temporal dependence. FIGS. 5E and 5F depict the time course of LDL receptor expression and dose dependence in response to INV-75. […] INV-75 had no effects on SREBP-1 regulation (data not shown). Simultaneously multiple genes involved in cholesterol synthesis and regulation, apolipoprotein gene expression and expression of PCSK9 (Proprotein convertase subtilisin/kexin type 9) was tested. […]

[1] = system: Watanabe Heritable Hyperlipidemic Rabbits (WHHL); test: MRI of abdominal aortic wall volume in WHHL rabbits; type: in vivo, rabbit
Experimental: In vivo experiments on hypercholesterolemic rabbits (Watanabe Heritable Hyperlipidemic Rabbits, WHHL) were performed in 6 rabbits treated with INV-75. Four rabbits served as controls.
Animal Model: WHHL rabbits weighing approximately 2 kg at 2 months were purchased from Brown Family in Alabama and housed in the institutional Laboratory Animal Center. Rabbits at the age of 6 months were used for all experiments. Rabbits were allowed free access to water and were fed a high cholesterol chow (2% cholesterol) from Harlan Tekad TD 7251. The animal care and experimental protocols were in accordance with nationally approved guidelines. The protocol that the rabbits were subjected to is outlined in FIG. 7. INV-75 was dissolved in 90% ethanol and sprayed on the high fat chow. The diet-drug mixture was then vacuum dried overnight to remove ethanol and then used to feed rabbits.
Each animal underwent three MRI studies: the first one prior to high fat feeding (baseline prior to drug administration); the second at the mid-point of drug therapy; and the final study after 12 weeks of drug therapy (FIG. 7). […] At the end of the study, all animals underwent an MRI study for plaque volume quantification. […]
High-resolution non-invasive MRI served to assess the degree of atherosclerosis before and after the corresponding treatments. Atherosclerotic plaque in the abdominal aorta of WHHL rabbits was analyzed by in vivo MRI scans at the indicated time points (FIG. 7). […] Plaque burden was determined by manually tracing the external elastic lamina (EEM) and the luminal border (L) and determining the area within each boundary using Siemens Viewer software. Slice volume (V) was calculated as V=(EEM-L)*4.0 and total wall volume per animal was calculated using the formula TWV=Σ[(EEM-L)*4] and expressed in mm^3. TWVs for each animal at each time point were normalized for varying numbers of readable slices with the formula NWV=(TWV/n)*m; n=number of slices readable in the individual animal and m=mean number of slices readable in all animals over all time points. […]

CC(=O)Oc1cc2c(cc1[N+](=O)[O-])OCO2 [INV-75, 3,4-methylenedioxy-6-nitrophenyl acetate]
TNFα induced VCAM-1 expression (VCAM-1; HUVECs pretreated 2 hours, then TNFα 4 hours): inhibits | VCAM-1 protein levels by western blot (VCAM-1; pre-treatment versus control (vehicle)): reduction | LDL receptor expression (LDL receptor): increases | wall volume, abdominal aorta, MRI ([1]; 12 weeks): 0.37 cm^3 | Mean normalized wall volume (NWV), abdominal aorta, MRI ([1]; baseline, prior to supplementation): 0.24 cm^3 | mean plaque volume, abdominal aorta, MRI ([1]; study midpoint, 6 weeks of supplementation): 0.35 cm^3
